This note sets out measurements from patent publication US7060681B2, “Compositions and methods for use of bioactive agents derived from sulfated and sulfonated amino acids” (Ecole Polytechnique Federale de Lausanne (EPFL), priority 2001, dated 2006).

Ends that are not written are not given here. * marks the point of attachment. SO3 = sulfate on the tyrosine hydroxyl group, O=S(=O)(O)*

The target of one experiment is T1, VEGF (Homo sapiens, UniProt P15692).
T1 sequence (P15692 27-191 isoform P15692-4): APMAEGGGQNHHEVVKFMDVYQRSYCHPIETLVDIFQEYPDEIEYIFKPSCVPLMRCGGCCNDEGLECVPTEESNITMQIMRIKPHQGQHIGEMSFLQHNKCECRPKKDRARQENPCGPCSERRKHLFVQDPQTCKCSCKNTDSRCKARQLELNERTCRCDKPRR
Nature of the experiment: Dissociation constant (KD) by surface plasma resonance (SPR). The note with it: ± standard deviation. In kind it is binding. The source says:
The sequence from the highest ranked bead from the first library of Example 1, was synthesized as SY(SO3)DY(SO3)G (SEE SEQ ID NO: 17), and the peptide Y(SO3)Y(SO3)GGY(SO3)DY(SO3) (SEE SEQ ID NO: 14) from the library of this Example were both synthesized independently and the dissociation constant (KD) determined by surface plasma resonance (SPR). The peptides were compared to suramin, a known heparin mimic that inhibits angiogenesis. […] Using SPR, there was no detectible binding of the analogous desulfated peptides to VEGF.

The target of the next experiment is T2, VEGF165 (Homo sapiens, UniProt P15692).
T2 construct: made in house; host or cells: E. coli AD494 (DE3)pLysS
T2 sequence (P15692 27-191 isoform P15692-4): T1 sequence (P15692 27-191 isoform P15692-4)
As to the kind of experiment: Colorimetric competitive bead assay with biotinylated VEGF165 in presence of heparin. In kind it is binding. The note with it: about 0.25 nM biotinylated VEGF165; 1 or 10 equivalents of heparin. Here is the method:
A colorimetric assay was used to screen the library. The assay employed two different precipitating, developing dyes. In this way, beads that bound VEGF165 selectively and through the sulfate functionality could be determined. A portion of the library (2–3 copies) was swelled with H2O and rinsed 3 times with TBS. The resin was subjected overnight to 0.1% albumin and 0.2% Tween in Tris buffered saline (TBS, blocking buffer) and then rinsed with TBS (2×) prior to adding 1 mL streptavidin alkaline phosphatase (diluted 1:1000 from a 1 mg/mL solution) and shaking for 2 hours. The resin was rinsed with TBS (5×) and 200 μL of 5-bromo-4-chloro-3-indoylphosphate p-toluidine salt/nitro blue tetrazolium chloride (BCIP/NBT) reagent was added to develop a blue/black color where the streptavidin alkaline phosphatase was present. Nonspecific adsorption of the streptavidin alkaline phosphatase was detected as blue/black stained beads. After 15 minutes, the resin was rinsed with TBS (5×) prior to adding 100 μL of about 0.25 nM of biotinylated VEGF165 in the presence or absence of 1 or 10 equivalents of heparin sodium salt (isolated from porcine intestinal mucosa) in 400 μL of blocking buffer. The mixture was shaken overnight, the solution removed, the resin washed with TBS (6×), and 1 mL streptavidin alkaline phosphatase (diluted 1:1000 from a 1 mg/mL solution) was added. […]

The term Kd denotes a measure of binding affinity in units of concentration. `Cc1ccc(C(=O)Nc2ccc(S(=O)(=O)O)c3cc(S(=O)(=O)O)cc(S(=O)(=O)O)c23)cc1NC(=O)c1cccc(NC(=O)Nc2cccc(C(=O)Nc3cc(C(=O)Nc4ccc(S(=O)(=O)O)c5cc(S(=O)(=O)O)cc(S(=O)(=O)O)c45)ccc3C)c2)c1` [Suramin, suramin] returned a dissociation constant (Kd) at VEGF of 340 µM.

Take “Y(SO3)Y(SO3)GGY(SO3)DY(SO3) (not fully specified (N-terminus); printed as Y(SO3)Y(SO3)GGY(SO3)DY(SO3))”: in the experiment with VEGF165, the “Binding of VEGF165 to peptide bead in the presence of heparin (in words)” value is on record as “bound”.
